Experimental data: ChEMBL document CHEMBL5046279, “Discovery of a Partial Glucokinase Activator Clinical Candidate: Diethyl ((3-(3-((5-(Azetidine-1-carbonyl)pyrazin-2-yl)oxy)-5-isopropoxybenzamido)-1H-pyrazol-1-yl)methyl)phosphonate (BMS-820132)” (J Med Chem, 2022)
Values after ≈ are worked out from the molar mass of the structure shown.

Assays:
[1] = Microsomal stability in human liver microsomes assessed as parent compound remaining at 0.5 uM measured after 10 mins in presence of NADPH; assay type: ADME, Microsome; settings: read-out: Stability
[2] = Aqueous solubility of the compound at pH 6.5 using amorphous form of sample; assay type: physicochemical; settings: aqueous solution
Hexokinase-4 [3] = target: T1, Hexokinase-4 (Homo sapiens, UniProt P35557); assay: Activation of recombinant full length human liver glucokinase expressed in Escherichia coli incubated for 10 mins by plate reader analysis
T1 sequence (P35557 whole entry): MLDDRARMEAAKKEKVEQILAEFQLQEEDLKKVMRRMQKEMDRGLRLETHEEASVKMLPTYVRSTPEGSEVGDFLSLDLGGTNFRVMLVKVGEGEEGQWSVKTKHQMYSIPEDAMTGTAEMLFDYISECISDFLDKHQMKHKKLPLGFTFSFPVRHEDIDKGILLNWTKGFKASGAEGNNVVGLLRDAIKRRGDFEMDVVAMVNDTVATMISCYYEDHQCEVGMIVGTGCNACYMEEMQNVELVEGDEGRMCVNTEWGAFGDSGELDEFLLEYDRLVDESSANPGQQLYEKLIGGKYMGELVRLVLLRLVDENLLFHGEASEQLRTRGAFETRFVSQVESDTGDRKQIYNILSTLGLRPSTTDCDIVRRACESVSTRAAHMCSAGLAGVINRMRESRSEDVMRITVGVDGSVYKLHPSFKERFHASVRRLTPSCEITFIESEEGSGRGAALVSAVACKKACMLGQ

[4] = target: Voltage-gated inwardly rectifying potassium channel KCNH2 (Homo sapiens, UniProt Q12809); assay: Inhibition of hERG by patch clamp method; assay type: toxicity
Sequence of Voltage-gated inwardly rectifying potassium channel KCNH2 (Q12809 whole entry): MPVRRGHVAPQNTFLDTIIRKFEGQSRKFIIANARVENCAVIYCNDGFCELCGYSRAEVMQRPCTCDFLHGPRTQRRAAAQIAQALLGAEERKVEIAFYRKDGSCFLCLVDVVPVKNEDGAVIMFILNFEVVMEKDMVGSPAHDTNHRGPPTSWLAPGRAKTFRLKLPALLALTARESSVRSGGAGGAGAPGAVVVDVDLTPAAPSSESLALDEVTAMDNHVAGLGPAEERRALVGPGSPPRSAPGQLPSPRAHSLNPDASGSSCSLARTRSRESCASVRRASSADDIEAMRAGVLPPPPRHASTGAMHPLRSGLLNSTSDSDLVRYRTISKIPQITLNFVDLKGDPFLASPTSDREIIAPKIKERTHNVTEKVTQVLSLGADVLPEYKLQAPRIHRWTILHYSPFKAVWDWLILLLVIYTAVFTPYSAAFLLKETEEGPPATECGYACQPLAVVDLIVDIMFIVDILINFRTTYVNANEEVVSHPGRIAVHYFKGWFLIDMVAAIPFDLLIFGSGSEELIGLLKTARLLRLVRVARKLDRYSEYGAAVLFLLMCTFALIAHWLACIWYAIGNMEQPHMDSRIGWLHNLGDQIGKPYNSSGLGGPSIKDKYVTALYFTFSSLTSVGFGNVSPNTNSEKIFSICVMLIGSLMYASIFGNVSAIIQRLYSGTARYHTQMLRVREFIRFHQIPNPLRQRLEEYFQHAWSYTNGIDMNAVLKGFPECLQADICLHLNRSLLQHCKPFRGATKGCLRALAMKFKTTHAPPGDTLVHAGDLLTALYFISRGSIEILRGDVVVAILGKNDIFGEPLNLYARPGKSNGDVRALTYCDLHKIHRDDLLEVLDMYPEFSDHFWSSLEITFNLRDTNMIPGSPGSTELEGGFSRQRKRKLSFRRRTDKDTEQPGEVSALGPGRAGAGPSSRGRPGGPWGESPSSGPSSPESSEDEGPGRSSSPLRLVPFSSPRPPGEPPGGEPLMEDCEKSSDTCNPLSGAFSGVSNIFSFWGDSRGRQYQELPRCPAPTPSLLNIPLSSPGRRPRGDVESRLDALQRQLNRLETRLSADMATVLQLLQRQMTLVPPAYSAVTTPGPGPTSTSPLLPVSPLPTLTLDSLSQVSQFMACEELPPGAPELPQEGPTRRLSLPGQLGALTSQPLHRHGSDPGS

[5] = Permeability of compound at pH 7.4 by PAMPA assay; assay type: ADME; settings: read-out: permeability
Hexokinase-4 [6] = target: T1, Hexokinase-4; assay: Activation of recombinant human full length liver glucokinase expressed in Escherichia coli incubated for 10 mins in presence of 2 mM glucose by plate reader analysis
Hexokinase-4 [7] = target: T1, Hexokinase-4; assay: Displacement of fluorescent labeled derivative from recombinant human hepatic glucokinase incubated for 30 mins in presence of 12 mM glucose by fluorescent polarization assay
Hexokinase-4 [8] = target: T2, Hexokinase-4 (Mus musculus, UniProt P52792); assay: Activation of recombinant mouse full length liver glucokinase expressed in Escherichia coli incubated for 10 mins in presence of 12 mM glucose by plate reader analysis
T2 sequence (P52792 whole entry): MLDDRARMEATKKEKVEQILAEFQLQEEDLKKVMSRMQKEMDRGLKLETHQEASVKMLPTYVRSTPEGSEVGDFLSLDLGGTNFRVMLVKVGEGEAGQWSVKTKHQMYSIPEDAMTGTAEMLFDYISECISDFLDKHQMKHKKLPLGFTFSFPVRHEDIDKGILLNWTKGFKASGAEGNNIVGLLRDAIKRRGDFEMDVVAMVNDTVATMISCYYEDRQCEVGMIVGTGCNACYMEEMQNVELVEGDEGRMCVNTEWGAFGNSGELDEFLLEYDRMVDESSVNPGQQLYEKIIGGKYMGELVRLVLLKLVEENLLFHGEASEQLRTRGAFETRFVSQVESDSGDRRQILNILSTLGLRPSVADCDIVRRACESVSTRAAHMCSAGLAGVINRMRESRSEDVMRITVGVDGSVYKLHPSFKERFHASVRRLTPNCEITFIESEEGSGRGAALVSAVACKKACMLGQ

Hexokinase-4 [9] = target: T1, Hexokinase-4; assay: Activation of recombinant human full length liver glucokinase expressed in Escherichia coli incubated for 10 mins in presence of 5 mM glucose by plate reader analysis
hERG (KCNH2) = hERG (KCNH2) (Homo sapiens, UniProt Q12809); assay: Inhibition of hERG at 10 uM by patch clamp method relative to control; assay type: toxicity
Sequence of hERG (KCNH2) (Q12809 whole entry): as the sequence (Q12809 whole entry) above

Structure (SMILES): CCOP(=O)(Cn1ccc(NC(=O)c2cc(Oc3ccc(S(C)(=O)=O)cc3)cc(O[C@@H](C)COC)c2)n1)OCC
- remaining at 10 min, 0.5 µM [1]: 11%
- solubility [2]: 240 µg/mL (≈ 403 µM)
- EC50 (Hexokinase-4 [3]): 75 nM
- IC50 [4]: > 80000 nM

Structure (SMILES): CCOP(=O)(Cn1ccc(NC(=O)c2cc(Oc3ccc(S(=O)(=O)C(C)C)cc3)cc(OC(C)C)c2)n1)OCC
- remaining at 10 min, 0.5 µM [1]: 77%
- solubility [2]: 3 µg/mL (≈ 5.05 µM)
- EC50 (Hexokinase-4 [3]): 32 nM
- Papp [5]: 53.6 ×10⁻⁶ cm/s
- IC50 [4]: 30000 nM

Structure (SMILES): CCOP(=O)(Cn1ccc(NC(=O)c2cc(Oc3cnc(C(=O)N(C)C)cn3)cc(OC(C)C)c2)n1)OCC
- remaining at 10 min, 0.5 µM [1]: 99%
- solubility [2]: 980 µg/mL (≈ 1750 µM)
- EC50 (Hexokinase-4 [3]): 148 nM
- IC50 [4]: > 80000 nM

Structure (SMILES): CCOP(=O)(Cn1ccc(NC(=O)c2cc(Oc3cnc(C(=O)N4CCC4)nc3)cc(OC(C)C)c2)n1)OCC
- remaining at 10 min, 0.5 µM [1]: 99%
- solubility [2]: 229 µg/mL (≈ 400 µM)
- EC50 (Hexokinase-4 [3]): 61 nM
- IC50 [4]: > 80000 nM

Structure (SMILES): CCOP(=O)(Cn1ccc(NC(=O)c2cc(Oc3cnc(S(C)(=O)=O)cn3)cc(OC(C)C)c2)n1)OCC
- remaining at 10 min, 0.5 µM [1]: 91%
- EC50 (Hexokinase-4 [3]): 159 nM
- Papp [5]: 44.5 ×10⁻⁶ cm/s
- IC50 [4]: > 80000 nM

Structure (SMILES): CCOP(=O)(Cn1ccc(NC(=O)c2cc(Oc3ccc(S(=O)(=O)CC)cc3)cc(OC(C)C)c2)n1)OCC
- remaining at 10 min, 0.5 µM [1]: 94%
- EC50 (Hexokinase-4 [3]): 28 nM
- Papp [5]: 53.4 ×10⁻⁶ cm/s

Structure (SMILES): CCOP(=O)(Cn1ccc(NC(=O)c2cc(Oc3ccc(S(C)(=O)=O)cc3)cc(OC(C)C)c2)n1)OCC
- remaining at 10 min, 0.5 µM [1]: 88%
- solubility [2]: 1 µg/mL (≈ 1.77 µM)
- EC50 (Hexokinase-4 [3]): 48 nM
- Papp [5]: 50.1 ×10⁻⁶ cm/s
- IC50 [4]: > 80000 nM

Structure (SMILES): CCOP(=O)(Cn1ccc(NC(=O)c2cc(Oc3ccc(C(=O)N4CCC4)cn3)cc(OC(C)C)c2)n1)OCC
- remaining at 10 min, 0.5 µM [1]: 99%
- solubility [2]: 298 µg/mL (≈ 521 µM)
- EC50 (Hexokinase-4 [3]): 188 nM
- IC50 [4]: > 80000 nM

Structure (SMILES): CCO[P@](C)(=O)Cn1ccc(NC(=O)c2cc(Oc3ccc(S(C)(=O)=O)cc3)cc(O[C@@H](C)COC)c2)n1
- remaining at 10 min, 0.5 µM [1]: 81%
- solubility [2]: 547 µg/mL (≈ 967 µM)
- EC50 (Hexokinase-4 [3]): 169 nM
- IC50 [4]: > 80000 nM

Structure (SMILES): CCOP(=O)(Cn1ncc(NC(=O)c2cc(Oc3ccc(S(C)(=O)=O)cc3)cc(O[C@@H](C)COC)c2)n1)OCC
- remaining at 10 min, 0.5 µM [1]: 33%
- solubility [2]: 5 µg/mL (≈ 8.38 µM)
- EC50 (Hexokinase-4 [3]): 49 nM

Structure (SMILES): CCOP(=O)(Cn1ccc(NC(=O)c2cc(Oc3ccc(S(C)(=O)=O)nc3)cc(OC(C)C)c2)n1)OCC
- remaining at 10 min, 0.5 µM [1]: 96%
- EC50 (Hexokinase-4 [3]): 24 nM
- Papp [5]: 47.1 ×10⁻⁶ cm/s
- IC50 [4]: > 80000 nM

Structure (SMILES): COC[C@H](C)Oc1cc(Oc2ccc(S(C)(=O)=O)cc2)cc(C(=O)Nc2ccn(CP(C)(C)=O)n2)c1
- remaining at 10 min, 0.5 µM [1]: 96%
- solubility [2]: 96 µg/mL (≈ 179 µM)
- EC50 (Hexokinase-4 [3]): 679 nM
- IC50 [4]: > 80000 nM

Structure (SMILES): CCOP(=O)(Cn1ccc(NC(=O)c2cc(Oc3ccc(S(C)(=O)=O)cc3)cc(O[C@@H](C)CF)c2)n1)OCC
- remaining at 10 min, 0.5 µM [1]: 78%
- solubility [2]: 1 µg/mL (≈ 1.71 µM)
- EC50 (Hexokinase-4 [3]): 87 nM
- Papp [5]: 56 ×10⁻⁶ cm/s
- IC50 [4]: > 80000 nM

Structure (SMILES): CCOP(=O)(Cc1csc(NC(=O)c2cc(Oc3ccc(S(C)(=O)=O)cc3)cc(O[C@@H](C)COC)c2)n1)OCC
- remaining at 10 min, 0.5 µM [1]: 4%
- solubility [2]: 16 µg/mL (≈ 26.1 µM)
- EC50 (Hexokinase-4 [3]): 38 nM
- EC50 (Hexokinase-4 [6]): 185 nM
- IC50 (Hexokinase-4 [7]): 122 nM
- EC50 (Hexokinase-4 [8]): 42 nM
- IC50 [4]: 50000 nM
- EC50 (Hexokinase-4 [9]): 64 nM
- inhibition at 10 µM (hERG (KCNH2)): 60%

Structure (SMILES): CCOP(=O)(Cc1cnc(NC(=O)c2cc(Oc3ccc(S(C)(=O)=O)cc3)cc(O[C@@H](C)COC)c2)cn1)OCC
- remaining at 10 min, 0.5 µM [1]: 54%
- solubility [2]: 161 µg/mL (≈ 265 µM)
- EC50 (Hexokinase-4 [3]): 164 nM
- IC50 [4]: > 80000 nM

Structure (SMILES): CCOP(=O)(Cn1ccc(NC(=O)c2cc(Oc3ccc(S(C)(=O)=O)cc3)cc(O[C@@H](C)CO)c2)n1)OCC
- remaining at 10 min, 0.5 µM [1]: 90%
- solubility [2]: 7 µg/mL (≈ 12 µM)
- EC50 (Hexokinase-4 [3]): 79 nM
- Papp [5]: 0.7 ×10⁻⁶ cm/s
- IC50 [4]: > 80000 nM

Structure (SMILES): CCOP(=O)(Cn1ccc(NC(=O)c2cc(Oc3ccc(C(=O)N4CCC4)nc3)cc(OC(C)C)c2)n1)OCC
- remaining at 10 min, 0.5 µM [1]: 66%
- solubility [2]: 39 µg/mL (≈ 68.2 µM)
- EC50 (Hexokinase-4 [3]): 25 nM
- IC50 [4]: > 80000 nM

Structure (SMILES): CCOP(=O)(Cn1ccc(NC(=O)c2cc(Oc3cnc(S(C)(=O)=O)nc3)cc(OC(C)C)c2)n1)OCC
- remaining at 10 min, 0.5 µM [1]: 100%
- solubility [2]: 471 µg/mL (≈ 830 µM)
- EC50 (Hexokinase-4 [3]): 234 nM
- Papp [5]: 31.4 ×10⁻⁶ cm/s
- IC50 [4]: > 80000 nM

Structure (SMILES): CCOP(=O)(Cn1ccc(NC(=O)c2cc(Oc3ccc(S(C)(=O)=O)cc3)cc(O[C@@H](CC)CO)c2)n1)OCC
- remaining at 10 min, 0.5 µM [1]: 82%
- EC50 (Hexokinase-4 [3]): 98 nM
- Papp [5]: 8.4 ×10⁻⁶ cm/s
- IC50 [4]: > 80000 nM

Structure (SMILES): CCOP(=O)(Cn1ccc(NC(=O)c2cc(Oc3cnc(C(N)=O)cn3)cc(OC(C)C)c2)n1)OCC
- remaining at 10 min, 0.5 µM [1]: 100%
- EC50 (Hexokinase-4 [3]): 656 nM
- IC50 [4]: > 80000 nM

Structure (SMILES): CCOP(=O)(Cn1ccc(NC(=O)c2cc(Oc3ccc(S(=O)(=O)N4CCC4)cc3)cc(OC(C)C)c2)n1)OCC
- remaining at 10 min, 0.5 µM [1]: 46%
- solubility [2]: 2 µg/mL (≈ 3.3 µM)
- EC50 (Hexokinase-4 [3]): 67 nM
- Papp [5]: 51.6 ×10⁻⁶ cm/s
- IC50 [4]: 33000 nM

Structure (SMILES): CCOP(=O)(Cn1ccc(NC(=O)c2cc(Oc3ccc(S(C)(=O)=O)cc3)cc(OC(CF)CF)c2)n1)OCC
- remaining at 10 min, 0.5 µM [1]: 93%
- solubility [2]: 10 µg/mL (≈ 16.6 µM)
- EC50 (Hexokinase-4 [3]): 76 nM
- Papp [5]: 38.2 ×10⁻⁶ cm/s
- IC50 [4]: 44000 nM

Structure (SMILES): CCOP(=O)(Cn1ccc(NC(=O)c2cc(Oc3cnc(C(=O)NC)cn3)cc(OC(C)C)c2)n1)OCC
- remaining at 10 min, 0.5 µM [1]: 98%
- EC50 (Hexokinase-4 [3]): 193 nM
- IC50 [4]: > 80000 nM

Structure (SMILES): CCOP(=O)(Cn1ccc(NC(=O)c2cc(Oc3ccc(C(=O)N4CCC4)nn3)cc(OC(C)C)c2)n1)OCC
- remaining at 10 min, 0.5 µM [1]: 99%
- solubility [2]: 409 µg/mL (≈ 714 µM)
- EC50 (Hexokinase-4 [3]): 1240 nM
- IC50 [4]: > 80000 nM

Structure (SMILES): CCOP(=O)(Cn1ccc(NC(=O)c2cc(Oc3ccc(S(C)(=O)=O)nn3)cc(OC(C)C)c2)n1)OCC
- remaining at 10 min, 0.5 µM [1]: 100%
- solubility [2]: 3830 µg/mL (≈ 6750 µM)
- EC50 (Hexokinase-4 [3]): 530 nM
- Papp [5]: 25.5 ×10⁻⁶ cm/s
- IC50 [4]: > 80000 nM
